Results on 6 compounds are retold here after PMC10333884, “Large‐scale phosphomimetic screening identifies phospho‐modulated motif‐based protein interactions” (Molecular Systems Biology, 2023).

Residues, ends and D or L forms follow the SMILES beside them.

Experiment [1] has as its target T1, AP2 μ2 (Homo sapiens, UniProt Q96CW1).
T1 construct: AP2_Mu__Q96CW1_160_435; GST (cleaved yes); made in house; host or cells: Escherichia coli BL21-Gold(DE3)
T1 sequence (Q96CW1 160-435): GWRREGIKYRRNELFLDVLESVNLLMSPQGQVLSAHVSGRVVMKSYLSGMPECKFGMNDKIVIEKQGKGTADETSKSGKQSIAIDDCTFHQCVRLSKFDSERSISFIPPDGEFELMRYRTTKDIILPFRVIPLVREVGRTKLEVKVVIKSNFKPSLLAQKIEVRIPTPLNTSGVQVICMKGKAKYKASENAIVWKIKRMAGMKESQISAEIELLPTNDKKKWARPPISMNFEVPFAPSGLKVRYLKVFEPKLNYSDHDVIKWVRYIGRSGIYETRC
In words: FP displacement assay, AP2 μ2. It is filed as binding. As to conditions: probe FITC-ATG9A 5 nM, 50 mM sodium phosphate pH 7.4, room temperature, at least three technical replicates, read-out: KD values ± SEM. How it is done: (§1) FP experiments were performed as described previously (Kliche et al, [2021]). Shortly, in order to monitor the binding event, FITC‐labelled peptides were used (excitation 495 nm, emission: 535 nm) and the FP signal was recorded in mP on a SpectraMax iD5 Multi‐Mode Microplate Reader (Molecular Devices) by measuring the emitted light in two angels. The measurements were performed at room temperature and prepared in nonbinding black half area 96‐well microplates (Corning®; 50 μl/well). For measuring direct binding, that is saturation curves, a 1:1 dilution series of protein domain (25 μl/well) was generated in 50 mM sodium phosphate buffer pH 7.4 and the measurement performed with 5 nM FITC‐labelled peptide (25 μl/well). The buffer‐corrected values were subsequently plotted with PRISM and fitted to the quadratic equation (Gianni et al, [2005]).
(§2) The 1:1 dilution series in this experiment was performed with the unlabelled peptide in 50 mM sodium phosphate buffer pH 7.4, so that each well‐contained unlabelled peptide (25 μl) at a certain concentration and pre‐formed complex (25 μl). The KD values of this indirectly monitored binding event were calculated as described previously (Nikolovska‐Coleska et al, [2004]). All measurements were at least in technical triplicates as well as biological duplicates when indicated. An amplitude shift between repeat measurements in the displacement experiments was occasionally observed due to variations in the protein preparations. If that was the case, the “active” protein concentration was back‐calculated according to the quadratic equation from the saturation curves performed in parallel. By comparing the active protein concentrations in the complex between different protein preparations, the amplitude was normalised.

Experiment [2] has as its target T1, AP2 μ2. The experiment in a line: Phosphomimetic ProP-PD selection, AP2 μ2. The note with it: phosphomimetic enrichment score of the wild-type/phosphomimetic (E) pair at the phosphosite, PM_HD2 phage selection, all overlapping peptides and replicates; positive = phosphomimetic enhances binding; P-value in brackets not taken. The method, then: (§3) Selections using the PM_HD2 phage library were performed as described previously with minor modification to the original protocol. The corresponding tag protein (either GST or MBP) was first used during negative selections. Selections were run for 4 days. • Bait and tag proteins (10–15 μg in 100 μl PBS) were immobilised in 96‐well MaxiSorb plate (NUNC) o.n. at 4°C. • Escherichia coli OmniMax bacteria were grown in 2YT medium supplemented with tetracycline (100 μg/ml) at 37°C and 200 rpm. • Plates with immobilised bait/tag proteins were blocked with 0.5% BSA in PBS for 1 h at 4°C. • Phage library (10 μl/well) was prepared by diluting 10× with PBS and adding one‐fourth of the volume of PEG/NaCl. For phage precipitation, prepared library was incubated for 10 min on ice followed by centrifugation for 10 min at 10,000 × g at 4°C. […]
(§4) Based on the results from phage pool ELISAs, samples from selection Day 3 and 4 were selected for NGS, as described previously (Benz et al, [2022]). • Peptide coding regions were amplified and dual‐barcoded by PCR. […] From the columns, samples were eluted with 30 μl TE (10 mM Tris–HCl, 1 mM EDTA. pH 7.5) buffer and quantified with Quant‐iT PicoGreen dsDNA Assay Kit. • Samples were sequenced on MiSeq (MSC 2.5.0.5/RTA 1.18.54) with a 151 nt (Read1) setup using “Version3” chemistry. […]

In experiment [3] the target is T2, SNX27 PDZ (Homo sapiens, UniProt Q96L92).
T2 construct: SNX27_PDZ__Q96L92_40_141; made in house; host or cells: Escherichia coli BL21-Gold(DE3)
In words: FP displacement assay, SNX27 PDZ (MBP-tagged). It is filed as binding. The note with it: for Kd: MBP-tagged domain, probe FITC-SYT16 5 nM, 50 mM sodium phosphate pH 7.4, room temperature, at least three technical replicates, read-out: KD values ± SEM. The method, then: (§5) For FP, ITC and crystallisation, the tag was removed with the appropriate protease either on beads (0.1 mg/ml thrombin (Cytiva) in PBS, 1 mM dithiothreitol (DTT)) or by dialysis in cleavage buffer (Human Rhinovirus (HRV) 3C protease: 50 mM Tris–HCl pH 7.4, 150 mM NaCl, 1 mM β‐mercaptoethanol), both procedures were overnight. In case of HRV protease cleavage, the tag was separated from the target protein domain by reverse ion metal affinity chromatography using Ni^2+ beads for purification, whereas thrombin was removed using a benzamidine column (Cytiva). Affinity measurements for SNX27 PDZ were performed on the MBP‐tagged construct, as well as PIN1 WW domain on the GST‐tagged construct. For FP and ITC, proteins were dialysed in 50 mM sodium phosphate buffer pH 7.4, 1 mM DTT. For crystallisation of the NTD of clathrin, the protein was further purified by a S200 Sepharose column (Cytiva) using 20 mM Tris–HCl pH 7.4, 150 mM NaCl and 1 mM DTT.
as §1, §2

The target in experiment [4] is T2, SNX27 PDZ. In words: Phosphomimetic ProP-PD selection, SNX27 PDZ. The note with it: phosphomimetic enrichment score of the wild-type/phosphomimetic (E) pair at the phosphosite, PM_HD2 phage selection; positive = phosphomimetic enhances binding; P-value in brackets not taken. The method, then: as §3, §4
A further experiment addresses T3, GABARAPL2 ATG8 (Homo sapiens, UniProt P60520).
T3 construct: GABARAPL2_ATG8__P60520_2_115; GST (cleaved yes); made in house; host or cells: Escherichia coli BL21-Gold(DE3)
In words: FP saturation experiment, GABARAPL2 ATG8. The note with it: FP saturation (direct binding), 5 nM FITC-labelled peptide, 50 mM sodium phosphate pH 7.4, room temperature; at least technical triplicates; reference for probe peptide PMID: 33436498; read-out: KD [µM] + SE. How it is done: as §1

The target of the next experiment is T4, MAP1LC3B ATG8 (Homo sapiens, UniProt Q9GZQ8).
T4 construct: MAP1LC3B ATG8; made in house; host or cells: Escherichia coli BL21-Gold(DE3)
The experiment in a line: FP saturation experiment, MAP1LC3B ATG8. The note with it: FP saturation (direct binding), 5 nM FITC-labelled peptide, 50 mM sodium phosphate pH 7.4, room temperature; at least technical triplicates; reference for probe peptide PMID: 33436498; read-out: KD [µM] + SE. How it is done: as §1

In another experiment the test system is PIN1 WW domain. The experiment in a line: FP displacement assay, PIN1 WW domain (GST-tagged). It is filed as binding, human. As to conditions: probe FITC-SMAD3, technical triplicates. The method, then:
as §5
FP experiments were performed as described previously (Kliche et al, [2021]). Shortly, in order to monitor the binding event, FITC‐labelled peptides were used (excitation 495 nm, emission: 535 nm) and the FP signal was recorded in mP on a SpectraMax iD5 Multi‐Mode Microplate Reader (Molecular Devices) by measuring the emitted light in two angels. […]

T3 sequence (P60520 2-115): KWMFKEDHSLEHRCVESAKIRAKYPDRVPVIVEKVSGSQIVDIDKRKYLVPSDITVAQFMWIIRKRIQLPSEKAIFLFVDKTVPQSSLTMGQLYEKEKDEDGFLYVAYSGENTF

In the case of `CC(=O)N[C@@H](Cc1ccccc1)C(=O)N1CCC[C@H]1C(=O)N[C@@H](CO)C(=O)N[C@@H](CCC(=O)O)C(=O)N[C@@H](Cc1ccc(O)cc1)C(=O)N[C@H](C(=O)N[C@@H](CCCCN)C(=O)N[C@@H](CC(C)C)C(=O)N[C@@H](CC(C)C)C(=O)N[C@@H](CCC(=O)O)C(=O)N[C@@H](CCC(=O)O)C(=O)N[C@@H](CC(N)=O)C(=O)N[C@@H](CCC(=O)O)C(=O)N[C@H](C(=O)N[C@@H](CCC(=O)O)C(=O)N[C@@H](C)C(N)=O)[C@@H](C)O)[C@@H](C)O` [BAIAPL1_392–407 E] (Ac-FPSEYTKLLEENETEA-NH2), the Kd on AP2 μ2 [1] turned out to be 0.49 ± 0.08 µM. At AP2 μ2 [2], the PES is on record as 1.2 (0.095).
Turning to `CC(=O)N[C@@H](CC(N)=O)C(=O)N[C@@H](CC(C)C)C(=O)N[C@@H](CC(C)C)C(=O)N[C@@H](CC(C)C)C(=O)N[C@@H](CCC(=O)O)C(=O)N[C@@H](CCCNC(=N)N)C(=O)N[C@@H](CC(=O)O)C(=O)N[C@H](C(=O)N[C@@H](CCC(=O)O)C(=O)N[C@@H](Cc1ccccc1)C(=O)N[C@H](C(=O)N[C@H](C(=O)N[C@@H](C)C(=O)N1CCC[C@H]1C(=O)N[C@@H](CC(=O)O)C(=O)N[C@@H](Cc1ccc(O)cc1)C(N)=O)C(C)C)[C@@H](C)O)[C@@H](C)O` [CDC25C30–44 E] (Ac-NLLLERDTEFTVAPDY-NH2), at SNX27 PDZ [3], the Kd turned out to be 680 ± 40 µM. Moreover, the PES on SNX27 PDZ [4] was −6 (0.00063).
Regarding `CSCC[C@H](NC(=O)CNC(C)=O)C(=O)N[C@H](C(=O)N[C@@H](CO)C(=O)N[C@@H](CCC(=O)O)C(=O)N[C@H](C(=O)N[C@@H](CO)C(=O)N[C@@H](Cc1ccccc1)C(=O)N[C@@H](CC(N)=O)C(=O)NCC(=O)NCC(=O)N[C@@H](Cc1ccc(O)cc1)C(N)=O)[C@@H](C)O)C(C)C` [DAXX606–616 E] (Ac-GMVSETSFNGGY-NH2), the half-maximal inhibitory concentration (IC50) on SNX27 PDZ [3] (Fig 4B, SNX27 PDZ, technical triplicates, read-out: IC50 values of displacement curves, with SEM) turned out to be 117 ± 25 µM. In addition, at SNX27 PDZ [3], the Kd came out at 23 ± 4 µM. In addition, the PES on SNX27 PDZ [4] is reported as 6 (0.00063).
As for `CC(C)C[C@H](NC(=O)[C@H](Cc1c[nH]cn1)NC(=O)[C@@H](NC(=O)[C@H](Cc1c[nH]c2ccccc12)NC(=O)[C@H](CC(=O)O)NC(=O)[C@H](CC(=O)O)NC(=O)[C@H](CC(=O)O)NC(=S)Nc1ccc2c(c1)C(=O)OC21c2ccc(O)cc2Oc2cc(O)ccc21)[C@@H](C)O)C(=O)N[C@@H](CO)C(=O)N[C@@H](CO)C(=O)N[C@@H](CCCCN)C(N)=O` [FITC-SQSTM1], the Kd stood at 11 ± 1 µM on GABARAPL2 ATG8 and 2.5 ± 0.2 µM at MAP1LC3B ATG8.
`CC[C@H](C)[C@H](NC(=O)[C@@H](NC(=O)[C@@H]1CCCN1C(=O)[C@H](CCC(=O)O)NC(=O)[C@H](CO)NC(=O)[C@H](C)NC(=O)[C@@H]1CCCN1C(=O)[C@H](CCSC)NC(=O)[C@@H]1CCCN1C(=O)[C@H](CCC(N)=O)NC(=O)[C@H](Cc1ccc(O)cc1)NC(=O)[C@@H]1CCCN1C(=O)[C@@H](NC(=O)[C@@H](NC(=O)[C@H](CCSC)NC(C)=O)[C@@H](C)O)[C@@H](C)CC)C(C)C)C(=O)N[C@@H](CS)C(N)=O` [PCBP1_179–194 E] (Ac-MTIPYQPMPASEPVIC-NH2): the Kd on AP2 μ2 [1] came to 2.05 ± 0.09 µM. Also, the PES on AP2 μ2 [2] is reported as 1 (0.15).
On to “H3COC-MSETQSS(pS/E)PTKGVLMY-NH2 [PIAS2_493–507 wt, wild-type PIAS2 493-507 peptide]”, for which the “binding in FP displacement experiment” value in the experiment on PIN1 WW domain was “none of the peptides tested”.

For orientation: Kd means the constant that tells how readily two partners part at equilibrium. In general, IC50 refers to the midpoint of a concentration-inhibition curve.
